Experimental data reported in the SangsterLogP compilation.

Structure (SMILES)	logP
O=C(NC(=O)c1c(F)cccc1F)Nc1ccc(OC(F)(F)C(F)OC(F)(F)F)c(Cl)c1 (centres undefined)	5.27
Clc1ccc(CS/C(Cn2cncn2)=N\c2ccc(Cl)cc2Cl)cc1	4.94
COP(=O)(OC)SCn1c(=O)oc2cc(Cl)cnc21	1.05
O=C(NC(=O)c1c(F)cccc1F)Nc1ccc(Cl)c(Oc2ncc(C(F)(F)F)cc2Cl)c1	5.1
Cc1cccc(C)c1N(C(=O)CCl)C1CCOC1=O (centres undefined)	1.39
CCc1cccc(C)c1N(COC(C)C)C(=O)CCl	3.5
Fc1cccc(F)c1-c1nnc(-c2ccccc2Cl)nn1	3.3
CCOP(=O)(SC(C)CC)N1CCSC1=O (centres undefined)	1.68
CN(C)S(=O)(=O)N(SC(F)(Cl)Cl)c1ccccc1	3.7
